# Assay results: US12528805B2, “Solid forms of emetine” (Acer Therapeutics, Inc., priority 2020, dated 2026)
# Counter-ions that a name gives are not always drawn.
# Key:
# [1] = Solubility screening by solvent addition technique (approximate solubility); type: physicochemical; settings: thermodynamic from solid; water; at ambient temperature; small, fine particles remained (Experiment 25)
# [2] = Solid form stability on storage (XRPD re-analysis); type: physicochemical
# Description: The solids were dried under vacuum at ambient temperature (about 23° C.) for 17 h. The solids on the XRPD plate were stored at 40° C./75% RH for 22 h then re-analyzed. Amorphous and a mixture of Compound I dihydrochloride Form 2 and Form 6 were obtained (Table 7).
# The solids were isolated by filtration after a total of 27.5 h at 5° C. and washed with 0.6 mL of cold acetone or 3×0.6 mL of cold heptane. The solids were dried under vacuum at ambient temperature (about 23° C.) for 17 h. The solids on the XRPD plate were stored at 40° C./75% RH for 22 h then re-analyzed by XRPD. Results, which are summarized in Table 8, show mixtures of Compound I dihydrochloride Forms 5 and 6, 5, 2 and 1, and 2 were obtained.
# 1.0 mL of water was added to approximately 300 mg of Compound I dihydrochloride Form 1. The resulting mixture was magnetically stirred at 50° C. over about 15 min, then stirred at 50° C. for 0.25 h. The solution was polish filtered (0.45 μm PTFE filter) into a 2 mL push-cap vial and then stirred at 50° C. for 0.25 h, prior to cooling to 5° C. at 0.1° C./min. After 62 h at 5° C., the experiment was sub-sampled and the solid was analyzed by XRPD. The material on the XRPD plate was dried under vacuum at 35° C. under a stream of wet nitrogen (20-38% RH) for about 9 h and then re-analyzed by XRPD. The material on the XRPD plate was stored at 25° C./60% RH for 22 h and then re-analyzed by XRPD. After a total of 87 h at 5° C., solids were isolated by centrifugation (0.22 μm nylon filter) and analyzed by XRPD. The solids were air-dried at ambient temperature (about 22° C.) for 24 h.
# Small-scale crystallization Experiment 7 was sub-sampled prior to ASA and after ASA was complete, with solids isolated by centrifugation (0.22 μm nylon filter) and analyzed by XRPD.
# Approximately 10 g of Compound I dihydrochloride Form 1 was dissolved in 67 mL of ethanol:water 99:1 v/v at about 60° C. (initial concentration: 150 mg/mL). Polish filtration was carried out (0.2 μm PTFE filter). The solution was transferred to a 250 mL vessel at 60° C. and stirred at 50° C. (solution temperature) and 300 rpm for about 5 min. The solution was seeded with about 100 mg (1 wt. %) of Compound I dihydrochloride Form 2, isolated from small-scale crystallization Experiments 12 and 13, from example 4 above. The seed dissolved rapidly. Anti-solvent addition of 10 mL of heptane (1 volume) was carried out at 2 vol/h (Heptane content of 13%). The solution was re-seeded with a further 100 mg (1 wt. %) of Form 2, isolated from small-scale crystallization Experiment 12. The seed persisted and a slurry formed. The slurry was stirred at 50° C. for 1 h and then anti-solvent addition of 131 mL of heptane at 1.5 vol/h was carried out, to reach 60% heptane. […] An additional 2 volumes of ethanol:water 99:1 v/v was added at the beginning of the ASA to mobilize the slurry. Once ASA was complete, the slurry was cooled to 5° C. at 0.1° C./min. The experiment was sub-sampled after about 2 h at 5° C. The slurry was thick but mixing. After 3.5 h at 5° C., an additional 3.6 mL of water was added to increase the water content to 2% (ethanol:water:heptane ratio of 39:2:59 v/v/v). The experiment was sub-sampled again after 2 h at 5° C. with additional water. After a total of 10 h at 5° C., solids were isolated by filtration and washed with 2 volumes of cold (5° C.) ethanol:heptane 40:60 v/v. The solids were filtered and dried under vacuum at ambient temperature (about 21° C.) for 14.5 h, then analyzed by XRPD.
# [3] = Dynamic vapor sorption (DVS); settings: for DVS uptake: 25° C.
# [4] = stored at 40° C./75% RH for 22 h
smiles,measurement,setting,value
"CC[C@H]1CN2CCc3cc(OC)c(OC)cc3[C@@H]2C[C@@H]1C[C@H]1NCCc2cc(OC)c(OC)cc21 [Compound I dihydrochloride Form 1, (2S,3R,11bS)-2-(((R)-6,7-dimethoxy-1,2,3,4-tetrahydroisoquinolin-1-yl)methyl)-3-ethyl-9,10-dimethoxy-1,3,4,6,7,11b-hexahydro-2H-pyrido[2,1-a]isoquinoline dihydrochloride]",solubility,[1],> 200 mg/mL
"CC[C@H]1CN2CCc3cc(OC)c(OC)cc3[C@@H]2C[C@@H]1C[C@H]1NCCc2cc(OC)c(OC)cc21 [Compound I dihydrochloride Form 2, (2S,3R,11bS)-2-(((R)-6,7-dimethoxy-1,2,3,4-tetrahydroisoquinolin-1-yl)methyl)-3-ethyl-9,10-dimethoxy-1,3,4,6,7,11b-hexahydro-2H-pyrido[2,1-a]isoquinoline dihydrochloride]",Solid form by XRPD after storage,"[2]; stored at 40° C./75% RH for 22 h, dihydrochloride",maintained
"CC[C@H]1CN2CCc3cc(OC)c(OC)cc3[C@@H]2C[C@@H]1C[C@H]1NCCc2cc(OC)c(OC)cc21 [Compound I dihydrochloride Form 6, (2S,3R,11bS)-2-(((R)-6,7-dimethoxy-1,2,3,4-tetrahydroisoquinolin-1-yl)methyl)-3-ethyl-9,10-dimethoxy-1,3,4,6,7,11b-hexahydro-2H-pyrido[2,1-a]isoquinoline dihydrochloride]",Solid form by XRPD after storage,[2]; storage at ambient conditions,maintained
same,Solid form by XRPD after storage,[2]; stored at 25° C./60% RH for 22 h,maintained
"CC[C@H]1CN2CCc3cc(OC)c(OC)cc3[C@@H]2C[C@@H]1C[C@H]1NCCc2cc(OC)c(OC)cc21 [Compound I dihydrochloride Form 7B, (2S,3R,11bS)-2-(((R)-6,7-dimethoxy-1,2,3,4-tetrahydroisoquinolin-1-yl)methyl)-3-ethyl-9,10-dimethoxy-1,3,4,6,7,11b-hexahydro-2H-pyrido[2,1-a]isoquinoline dihydrochloride]",DVS uptake,"[3]; between 20-70% RH, cycle 2 sorption, material of large-scale Experiment 4 dried under vacuum at about 20° C. for 17.5 h",8.7%
same,DVS uptake,"[3]; between 40-80% RH, cycle 1 sorption",about 3%
same,DVS uptake,"[3]; between 80-90% RH, cycle 1 sorption",large uptake
same,Relative humidity of deliquescence,[3]; post-DVS XRPD: amorphous material was recovered,about 90 % RH
"CC[C@H]1CN2CCc3cc(OC)c(OC)cc3[C@@H]2C[C@@H]1C[C@H]1NCCc2cc(OC)c(OC)cc21 [Compound I dihydrochloride Form 8, (2S,3R,11bS)-2-(((R)-6,7-dimethoxy-1,2,3,4-tetrahydroisoquinolin-1-yl)methyl)-3-ethyl-9,10-dimethoxy-1,3,4,6,7,11b-hexahydro-2H-pyrido[2,1-a]isoquinoline dihydrochloride]",Solid form by XRPD after storage,[2]; 1 h under ambient conditions,converted to Compound I dihydrochloride Form 2
same,Solid form by XRPD after storage,[2]; 3 h under ambient conditions,converted to Form 2
CC[C@H]1CN2CCc3cc(OC)c(OC)cc3[C@@H]2C[C@@H]1C[C@H]1NCCc2cc(OC)c(OC)cc21 [Form 2 with a trace Form 1],Solid form by XRPD after storage,[2]; [4],Compound I dihydrochloride Form 2 was obtained
CC[C@H]1CN2CCc3cc(OC)c(OC)cc3[C@@H]2C[C@@H]1C[C@H]1NCCc2cc(OC)c(OC)cc21 [mixture of Form 5 and Form 6],Solid form by XRPD after storage,[2]; storage at 5° C. for about 2 weeks,Conversion to Form 5
same,Solid form by XRPD after storage,[2]; [4],conversion back to Compound I dihydrochloride Form 5
